Measured values: article PMC9897788, “Design, synthesis and cytotoxic evaluation of novel bis-thiazole derivatives as preferential Pim1 kinase inhibitors with in vivo and in silico study” (Journal of Enzyme Inhibition and Medicinal Chemistry, 2023)

Assays:
Test in all cases: NCI 60 cell one-dose screening (SRB)
Assay type in all cases: cell-based
786-0 = settings: Homo sapiens; 786-0, Renal Cancer; single dose 10 µM, 48 h; read-out: Percentage of cellular growth inhibition
Outline: (§1)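 Growth percentage, referenced to time-zero and drug-free wells and measured by SRB absorbance (515 nm), was subtracted from 100 to give inhibition. Cells had been pre-grown 24 h, then incubated 48 h at 37 °C, 5% CO2 with test compound at 10 µM final.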

DU-145 = settings: Homo sapiens; DU-145, Prostate Cancer; single dose 10 µM, 48 h; read-out: Percentage of cellular growth inhibition
Outline: as §1

HCT-15 = settings: Homo sapiens; HCT-15, Colon Cancer; single dose 10 µM, 48 h; read-out: Percentage of cellular growth inhibition
Outline: as §1

HL-60(TB) = settings: Homo sapiens, Leukemia, single dose 10 µM, 48 h, read-out: Percentage of cellular growth inhibition
Outline: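 Single dose 10 µM, 48 h exposure; RPMI 1640/5% FBS/2 mM Gln, 37 °C. TCA fix (10% adherent, 16% suspension), 0.4% SRB, A515. Value = 100 − growth % relative to untreated control.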

HOP-62 = settings: Homo sapiens; HOP-62, Non-Small Cell Lung Cancer; single dose 10 µM, 48 h; read-out: Percentage of cellular growth inhibition
Outline: as §1

HOP-92 = settings: Homo sapiens, HOP-92, 48 h, HOP-92, Non-Small Cell Lung Cancer, single dose 10 µM, read-out: Percentage of cellular growth inhibition
Outline: as §1

IGROV1 = settings: Homo sapiens, IGROV-1; IGROV1, Ovarian Cancer; single dose 10 µM, 48 h; read-out: Percentage of cellular growth inhibition
Outline: as §1

KM12 = settings: Homo sapiens; KM12, Colon Cancer; single dose 10 µM, 48 h; read-out: Percentage of cellular growth inhibition
Outline: as §1

MCF7 = settings: Homo sapiens; MCF7, Breast Cancer; single dose 10 µM, 48 h; read-out: Percentage of cellular growth inhibition
Outline: as §1

MDA-MB-231/ATCC = settings: Homo sapiens, Breast Cancer, single dose 10 µM, 48 h, read-out: Percentage of cellular growth inhibition
Outline: as §1

NCI-H226 = settings: Homo sapiens; NCI-H226, Non-Small Cell Lung Cancer; single dose 10 µM, 48 h; read-out: Percentage of cellular growth inhibition
Outline: as §1

NCI-H322M = settings: Homo sapiens, Non-Small Cell Lung Cancer, single dose 10 µM, 48 h, read-out: Percentage of cellular growth inhibition
Outline: as §1

NCI/ADR-RES = settings: Homo sapiens, Ovarian Cancer, single dose 10 µM, 48 h, read-out: Percentage of cellular growth inhibition
Outline: as §1

OVCAR-5 = settings: Homo sapiens; OVCAR-5, Ovarian Cancer; single dose 10 µM, 48 h; read-out: Percentage of cellular growth inhibition
Outline: as §1

RPMI-8226 = settings: Homo sapiens; RPMI-8226, Leukemia; single dose 10 µM, 48 h; read-out: Percentage of cellular growth inhibition
Outline: as §1

RXF 393 = settings: Homo sapiens; RXF 393, Renal Cancer; single dose 10 µM, 48 h; read-out: Percentage of cellular growth inhibition
Outline: as §1

SNB-19 = settings: Homo sapiens; SNB-19, CNS Cancer; single dose 10 µM, 48 h; read-out: Percentage of cellular growth inhibition
Outline: as §1

TK-10 = settings: Homo sapiens; TK-10, Renal Cancer; single dose 10 µM, 48 h; read-out: Percentage of cellular growth inhibition
Outline: as §1

UACC-62 = settings: Homo sapiens; UACC-62, Melanoma; single dose 10 µM, 48 h; read-out: Percentage of cellular growth inhibition
Outline: as §1

UO-31 = settings: Homo sapiens; UO-31, Renal Cancer; single dose 10 µM, 48 h; read-out: Percentage of cellular growth inhibition
Outline: as §1

| Compound | inhibition at 10 µM (786-0) [%] | inhibition at 10 µM (DU-145) [%] | inhibition at 10 µM (HCT-15) [%] | inhibition at 10 µM (HL-60(TB)) [%] | inhibition at 10 µM (HOP-62) [%] | inhibition at 10 µM (HOP-92) [%] | inhibition at 10 µM (IGROV1) [%] | inhibition at 10 µM (KM12) [%] | inhibition at 10 µM (MCF7) [%] | inhibition at 10 µM (MDA-MB-231/ATCC) [%] | inhibition at 10 µM (NCI-H226) [%] | inhibition at 10 µM (NCI-H322M) [%] | inhibition at 10 µM (NCI/ADR-RES) [%] | inhibition at 10 µM (OVCAR-5) [%] | inhibition at 10 µM (RPMI-8226) [%] | inhibition at 10 µM (RXF 393) [%] | inhibition at 10 µM (SNB-19) [%] | inhibition at 10 µM (TK-10) [%] | inhibition at 10 µM (UACC-62) [%] | inhibition at 10 µM (UO-31) [%] |
| --- | --- | --- | --- | --- | --- | --- | --- | --- | --- | --- | --- | --- | --- | --- | --- | --- | --- | --- | --- | --- |
| Fc1ccc(-c2cs/c(=N\c3ccccc3)n2-c2cccc(-n3c(-c4ccc(F)cc4)cs/c3=N\c3ccccc3)c2)cc1 [8b, N,N’-(3,3’-(1,3-phenylene)bis(4–(4-fluorophenyl)thiazole-3(3H)-yl-2(3H)-ylidene))dianiline] | 4.2 | 17.1 | 21.7 | 15.8 | -4.6 | 22 | 12.9 | 12.8 | 42.9 | 8.9 | 23.5 | 15.2 | 10.2 | 14 | 24.2 | 11.6 | 5.6 | -16.6 | 41 | 26.3 |
| Clc1ccc(-c2cs/c(=N\c3ccccc3)n2-c2cccc(-n3c(-c4ccc(Cl)cc4)cs/c3=N\c3ccccc3)c2)cc1 [8c, N,N’-(3,3’-(1,3-phenylene)bis(4–(4-chlorophenyl)thiazole-3(3H)-yl-2(3H)-ylidene))dianiline] | -6.9 | 19.2 | -1.3 | 41.8 | -3.3 | 2.4 | -0.4 | 8.8 | 23.4 | -4.5 | 16.9 | -1.2 | 0.5 | -2.6 | 37 | 8.4 | 3.8 | -14.1 | 10.5 | 17.8 |
| NC(=S)Nc1cccc(NC(N)=S)c1 [compound 2, 1,1′-(1,3-phenylene)bis(thiourea)] | -7.8 | -1.2 | 4.9 | 0.9 | -19.5 | -4.5 | 2.5 | 12.4 | 8.3 | 10.3 | 1.9 | 11.7 | 2.4 | -3.6 | -9.5 | -3.8 | 11.7 | -7.3 | 29.5 | 30 |
| S=C(Nc1ccccc1)Nc1cccc(NC(=S)Nc2ccccc2)c1 [compound 7, 1,1′-(1,3-phenylene)bis(3-phenylthiourea)] | -13.4 | -10.2 | 0.8 | -2.5 | -18.9 | -15.7 | -3.3 | 1 | 8.5 | -0.2 | -6.2 | 2.6 | -9.3 | -4.9 | -19.2 | -16.6 | 3.4 | -17.5 | 5.8 | 14.6 |
